Measured values: patent US20090246292A1, “ANTIMICROBIAL FORMULATIONS COMPRISING A QUINONE AND A COPPER SALT” (priority 2006, published 2009)
Like-named read-outs stand apart in the source and are kept apart here.

Legend:
[1] = system: S. aureus ATCC 29213; assay: Disc diffusion assay (DDA), also supplemented
[2] = system: S. aureus ATCC 29213; assay: Synergy disc diffusion assay (SDDA), also supplemented;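 further: disc diffusion on Mueller-Hinton agar at pH 7.2, aerobic incubation at 37 °C lasting 19-20 h, two compounds assessed jointly for combined antimicrobial effect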
[3] = system: P. acnes NCTC 737; assay: as above
[4] = system: P. acnes NCTC 737; assay: Minimum bactericidal concentration (MBC) assay; type: cell-based, Propionibacterium acnes
Procedure: (§1) (b) Minimum Bactericidal Concentration (MBC) Assay
(§2) Following incubation they were examined visually for bacterial growth.

[5] = system: P. acnes NCTC 737; assay: Disc diffusion assay (DDA), also supplemented;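 further: paper disc carrying compound placed on inoculated Wilkins-Chalgren Anaerobe agar pH 6.0, with lipid or NaCl supplement where listed, anaerobic 37 °C for 72 h, inhibition zone diameter read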
Procedure: The propionibacteria were cultured and maintained on Wilkins-Chalgren Anaerobe Medium (agar and broth) at pH 6.0; all cultures were incubated anaerobically at 37° C. for 72 hours.
(d) Disc Diffusion Assay (DDA)
A sterile paper disc was impregnated with a sample of the test compound in a suitable solvent and 30 minutes allowed for the solvents to evaporate (where possible). The disc was then placed on an agar plate onto which the test micro-organism had been inoculated. The plate was then incubated under the conditions described above, following which it was examined visually for signs of bacterial growth. […] The diameter of this zone of “inhibition” was measured using a ProtoCOL™ automated zone sizer (Synbiosis, Cambridge, UK).
(f) Supplemented Disc Diffusion Assays
For assays using Propionibacterium spp. strains the supplements used in the examples below were lipid (either Tween™ 80 or triolein, both at 1% v/v) and sodium chloride (100 mM).

[6] = system: P. acnes NCTC 737; assay: Minimum inhibitory concentration (MIC) assay; type: cell-based, Propionibacterium acnes
From the text: (§3) (a) Minimum Inhibitory Concentration (MIC) Assay
(§4) The culture media were as described above.
(§5) The assays included both negative (culture medium with no micro-organisms) and positive (culture medium plus diluting solvent plus micro-organism) controls.

[7] = system: S. aureus ATCC 29213; assay: Minimum bactericidal concentration (MBC) assay; type: cell-based, Staphylococcus aureus
Procedure: as §1, §2

[8] = system: S. aureus ATCC 29213; assay: Minimum inhibitory concentration (MIC) assay; type: cell-based, Staphylococcus aureus
From the text: as §3, §4, §5

[9] = copper salt alone, 200 μg per disc (silicate 62 μg), Tween 80 at 1% v/v
[10] = copper salt alone, 200 μg per disc (silicate 62 μg), salt and horse serum (5% v/v)
[11] = copper salt alone, 200 μg per disc (silicate 62 μg), sodium chloride (100 mM)
[12] = copper salt + TBHQ on one disc, 200 μg of each (silicate 62 μg), salt and serum supplements
[13] = copper salt + TBHQ on one disc, 200 μg of each (silicate 62 μg), unsupplemented
[14] = copper salt + TBHQ vs larger zone of either compound alone, unsupplemented
[15] = copper salt + TBHQ, salt and serum supplements
[16] = copper salt + TBHQ, unsupplemented
[17] = copper salt + TBHQ on one disc, 200 μg of each (silicate 62 μg), salt and lipid (1% (v/v) Tween 80)
[18] = copper salt + TBHQ, salt and lipid (1% (v/v) Tween 80)
[19] = copper salt alone, P. acnes NCTC 737
[20] = copper salt alone, 200 μg per disc (silicate 62 μg), 1% (v/v) Tween 80
[21] = copper salt alone, 200 μg per disc (silicate 62 μg), salt and 1% (v/v) Tween 80
[22] = copper salt alone, S. aureus ATCC 29213

Compound: [Br][Cu][Br] [Copper (II) bromide]
- DDA + lipid [1, 9]: 0 mm
- DDA + salt & serum [1, 10]: 0 mm
- DDA + salt [1, 11]: 0 mm
- SS SDDA with TBHQ [2, 12]: 44.42 mm
- SDDA with TBHQ [2, 13]: 59.26 mm
- SDDA increase [2, 14]: 18.84 mm
- SS SDDA area increase [2, 15]: 3.42%
- SS SDDA increase [2, 15]: 0.74 mm
- SDDA area increase [2, 16]: 114.95%
- SL SDDA with TBHQ [3, 17]: 65.39 mm
- SDDA with TBHQ [3, 13]: 66.3 mm
- SDDA increase [3, 14]: 11.47 mm
- SL SDDA area increase [3, 18]: 76.46%
- SL SDDA increase [3, 18]: 16.17 mm
- SDDA area increase [3, 16]: 46.18%
- MBC [4, 19]: 62.5 µg/mL
- DDA + lipid [5, 20]: 42.37 mm
- DDA + salt & lipid [5, 21]: 49.23 mm
- DDA + salt [5, 11]: 47.94 mm
- MIC [6, 19]: 7.8 µg/mL
- MIC/MBC ratio [6, 19]: 0.125
- MBC [7, 22]: >250 µg/mL
- MIC [8, 22]: >250 µg/mL

Compound: Copper (II)-D-gluconate
- DDA [1]: 0 mm
- DDA + lipid [1, 9]: 0 mm
- DDA + salt & serum [1, 10]: 0 mm
- DDA + salt [1, 11]: 0 mm
- SS SDDA with TBHQ [2, 12]: 53.37 mm
- SDDA with TBHQ [2, 13]: 68.32 mm
- SDDA increase [2, 14]: 27.90 mm
- SS SDDA area increase [2, 15]: 49.29%
- SS SDDA increase [2, 15]: 9.69 mm
- SDDA area increase [2, 16]: 185.69%
- SL SDDA with TBHQ [3, 17]: 53.19 mm
- SDDA with TBHQ [3, 13]: 53.5 mm
- SDDA increase [3, 14]: 8.13 mm
- SL SDDA area increase [3, 18]: 27.88%
- SL SDDA increase [3, 18]: 6.15 mm
- SDDA area increase [3, 16]: 39.05%
- MBC [4, 19]: 125 µg/mL
- DDA [5]: 45.37 mm
- DDA + lipid [5, 20]: 27.36 mm
- DDA + salt & lipid [5, 21]: 47.04 mm
- DDA + salt [5, 11]: 37.93 mm
- MIC [6, 19]: 62.5 µg/mL
- MIC/MBC ratio [6, 19]: 0.5
- MBC [7, 22]: >250 µg/mL
- MIC [8, 22]: >250 µg/mL

Compound: CC(=O)Oc1ccccc1C(=O)[O-].CC(=O)Oc1ccccc1C(=O)[O-].CC(=O)Oc1ccccc1C(=O)[O-].CC(=O)Oc1ccccc1C(=O)[O-].[Cu+2].[Cu+2] [Copper (II) aspirinate]
- DDA [1]: 0 mm
- DDA + lipid [1, 9]: 0 mm
- DDA + salt & serum [1, 10]: 0 mm
- DDA + salt [1, 11]: 0 mm
- SS SDDA with TBHQ [2, 12]: 56.95 mm
- SDDA with TBHQ [2, 13]: 69.05 mm
- SDDA increase [2, 14]: 28.63 mm
- SS SDDA area increase [2, 15]: 69.99%
- SS SDDA increase [2, 15]: 13.27 mm
- SDDA area increase [2, 16]: 191.83%
- SL SDDA with TBHQ [3, 17]: 58.93 mm
- SDDA with TBHQ [3, 13]: 60.80 mm
- SDDA increase [3, 14]: 16.48 mm
- SL SDDA area increase [3, 18]: 54.20%
- SL SDDA increase [3, 18]: 11.47 mm
- SDDA area increase [3, 16]: 88.19%
- MBC [4, 19]: 62.5 µg/mL
- DDA [5]: 44.32 mm
- DDA + lipid [5, 20]: 36.19 mm
- DDA + salt & lipid [5, 21]: 47.45 mm
- DDA + salt [5, 11]: 40.21 mm
- MIC [6, 19]: 15.6 µg/mL
- MBC [7, 22]: >250 µg/mL
- MIC [8, 22]: 125 µg/mL
- MIC/MBC ratio [8, 22]: <0.5

Compound: O.O=C([O-])C(O)C(O)C(=O)[O-].[Cu+2] (centres unmarked) [Copper (II) tartrate hydrate]
- DDA [1]: 0 mm
- DDA + lipid [1]: 0 mm
- DDA + salt [1]: 0 mm
- DDA + salt & serum [1]: 0 mm
- SDDA area increase [2]: −88.71%
- SDDA increase [2]: −26.84 mm
- SDDA with TBHQ [2]: 13.58 mm
- SS SDDA area increase [2]: −94.19%
- SS SDDA increase [2]: −33.15 mm
- SS SDDA with TBHQ [2]: 10.53 mm
- SDDA area increase [3]: 20.27%
- SDDA increase [3]: 4.8 mm
- SDDA with TBHQ [3]: 54.44 mm
- SL SDDA area increase [3]: 24.11%
- SL SDDA increase [3]: 5.42 mm
- SL SDDA with TBHQ [3]: 52.98 mm
- MBC [4]: 62.5 µg/mL
- DDA [5]: 49.64 mm
- DDA + lipid [5]: 38.35 mm
- DDA + salt [5]: 48.25 mm
- DDA + salt & lipid [5]: 47.56 mm
- MIC [6]: 15.6 µg/mL
- MIC/MBC ratio [6]: 0.25
- MBC [7]: >250 µg/mL
- MIC [8]: >250 µg/mL
